Experimental data from paper PMC8429728, “TNK1 is a ubiquitin-binding and 14-3-3-regulated kinase that can be targeted to block tumor growth” (Nature Communications, 2021).
Where two headings read alike, the source gives them in different places.

Assays:
Assay in all cases: biochemical
Parameters in all cases: Reaction Biology 371-kinase panel at Km ATP, per cent enzyme activity relative to DMSO, single dose in duplicate
ABL1 = ABL1 (Homo sapiens, UniProt P00519); details: duplicate measurements, Km ATP
ABL1, sequence (P00519 whole entry): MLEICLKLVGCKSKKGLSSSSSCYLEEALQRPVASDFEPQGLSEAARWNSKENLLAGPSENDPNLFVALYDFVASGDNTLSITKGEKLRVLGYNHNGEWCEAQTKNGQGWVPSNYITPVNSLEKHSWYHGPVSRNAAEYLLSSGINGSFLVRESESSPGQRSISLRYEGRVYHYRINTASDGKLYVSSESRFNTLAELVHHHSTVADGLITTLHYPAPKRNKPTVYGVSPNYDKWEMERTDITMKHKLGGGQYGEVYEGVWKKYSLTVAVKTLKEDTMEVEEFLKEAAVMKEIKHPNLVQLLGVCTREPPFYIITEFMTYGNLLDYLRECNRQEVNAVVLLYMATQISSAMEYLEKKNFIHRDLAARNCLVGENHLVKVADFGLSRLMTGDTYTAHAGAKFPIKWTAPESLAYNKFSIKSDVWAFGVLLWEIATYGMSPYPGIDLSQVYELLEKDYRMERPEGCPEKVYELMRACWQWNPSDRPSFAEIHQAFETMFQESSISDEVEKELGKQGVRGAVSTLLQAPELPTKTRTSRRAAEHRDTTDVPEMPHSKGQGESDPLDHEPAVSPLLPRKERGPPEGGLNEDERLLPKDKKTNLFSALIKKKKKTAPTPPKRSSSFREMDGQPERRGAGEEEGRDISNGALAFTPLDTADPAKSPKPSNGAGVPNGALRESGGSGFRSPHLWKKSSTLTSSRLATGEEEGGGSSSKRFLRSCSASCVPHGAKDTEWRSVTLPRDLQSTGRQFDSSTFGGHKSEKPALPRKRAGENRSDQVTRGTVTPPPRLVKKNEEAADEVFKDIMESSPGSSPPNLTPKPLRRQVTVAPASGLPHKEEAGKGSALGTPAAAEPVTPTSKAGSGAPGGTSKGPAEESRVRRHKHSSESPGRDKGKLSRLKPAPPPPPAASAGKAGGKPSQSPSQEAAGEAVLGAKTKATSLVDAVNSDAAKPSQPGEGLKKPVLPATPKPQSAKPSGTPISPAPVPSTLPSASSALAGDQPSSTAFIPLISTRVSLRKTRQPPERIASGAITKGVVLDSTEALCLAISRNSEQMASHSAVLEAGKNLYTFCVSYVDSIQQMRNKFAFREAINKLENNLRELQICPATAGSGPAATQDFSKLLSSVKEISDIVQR
Procedure, shortened: (§1)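 Activity of each kinase, normalised to DMSO-treated controls, served as the read-out. The inhibitor was tested at 300 nM against 371 kinases in vitro. Curves fitted by variable-slope sigmoidal dose-response, constrained to a bottom of 0, gave IC50.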

AKT3 = AKT3 (Homo sapiens, UniProt Q9Y243); details: duplicate measurements, Km ATP
AKT3, sequence (Q9Y243 whole entry): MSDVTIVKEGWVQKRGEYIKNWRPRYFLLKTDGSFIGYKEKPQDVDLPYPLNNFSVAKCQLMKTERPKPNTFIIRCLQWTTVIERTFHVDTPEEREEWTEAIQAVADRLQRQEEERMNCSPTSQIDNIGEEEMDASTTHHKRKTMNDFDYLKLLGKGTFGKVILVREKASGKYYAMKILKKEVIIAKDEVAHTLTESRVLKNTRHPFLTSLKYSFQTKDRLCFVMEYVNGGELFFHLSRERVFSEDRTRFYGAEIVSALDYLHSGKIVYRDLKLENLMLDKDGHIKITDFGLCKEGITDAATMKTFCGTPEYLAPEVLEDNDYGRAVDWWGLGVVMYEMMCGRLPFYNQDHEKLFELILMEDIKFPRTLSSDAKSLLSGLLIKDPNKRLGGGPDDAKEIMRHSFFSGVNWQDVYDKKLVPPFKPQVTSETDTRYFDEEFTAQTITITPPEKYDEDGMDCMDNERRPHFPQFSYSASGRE
Procedure, shortened: as §1

ALK3/BMPR1A = ALK3/BMPR1A (Homo sapiens, UniProt P36894); details: duplicate measurements, Km ATP
Procedure, shortened: as §1

ALK6/BMPR1B = ALK6/BMPR1B (Homo sapiens, UniProt O00238); details: duplicate measurements, Km ATP
Procedure, shortened: as §1

BMPR2 = BMPR2 (Homo sapiens, UniProt Q13873); details: duplicate measurements, Km ATP
BMPR2, sequence (Q13873 whole entry): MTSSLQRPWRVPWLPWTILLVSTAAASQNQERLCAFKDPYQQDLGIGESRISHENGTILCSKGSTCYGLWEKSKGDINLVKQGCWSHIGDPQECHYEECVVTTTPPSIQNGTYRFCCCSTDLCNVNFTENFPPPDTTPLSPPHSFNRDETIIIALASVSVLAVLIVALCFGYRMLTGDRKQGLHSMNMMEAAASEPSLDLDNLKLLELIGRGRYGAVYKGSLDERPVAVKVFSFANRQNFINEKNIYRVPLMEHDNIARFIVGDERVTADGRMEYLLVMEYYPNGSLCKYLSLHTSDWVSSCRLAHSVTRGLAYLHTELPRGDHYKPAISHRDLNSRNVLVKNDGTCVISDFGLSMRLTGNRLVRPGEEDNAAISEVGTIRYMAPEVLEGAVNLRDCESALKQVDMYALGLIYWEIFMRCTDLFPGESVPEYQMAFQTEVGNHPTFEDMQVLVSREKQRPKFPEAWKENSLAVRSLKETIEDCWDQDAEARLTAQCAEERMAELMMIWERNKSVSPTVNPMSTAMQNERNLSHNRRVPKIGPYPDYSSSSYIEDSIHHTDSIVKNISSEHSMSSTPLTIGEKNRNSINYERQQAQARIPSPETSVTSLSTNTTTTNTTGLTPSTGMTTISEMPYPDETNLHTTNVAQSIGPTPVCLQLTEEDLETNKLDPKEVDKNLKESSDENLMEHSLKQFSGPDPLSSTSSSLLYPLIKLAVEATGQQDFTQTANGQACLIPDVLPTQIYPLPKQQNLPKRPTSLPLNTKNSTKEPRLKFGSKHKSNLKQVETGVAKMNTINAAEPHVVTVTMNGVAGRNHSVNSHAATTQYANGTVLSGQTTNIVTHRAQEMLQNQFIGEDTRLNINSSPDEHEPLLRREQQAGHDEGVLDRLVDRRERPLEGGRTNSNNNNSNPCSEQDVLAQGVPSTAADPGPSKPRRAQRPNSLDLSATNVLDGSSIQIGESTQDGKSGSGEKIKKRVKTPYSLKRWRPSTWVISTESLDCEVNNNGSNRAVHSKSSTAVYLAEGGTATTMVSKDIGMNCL
Procedure, shortened: as §1

CAMK2a = CAMK2a (Homo sapiens, UniProt Q9UQM7); details: duplicate measurements, Km ATP
Procedure, shortened: as §1

CDK1/cyclin B = CDK1/cyclin B (Homo sapiens, UniProt P06493); details: duplicate measurements, Km ATP; read-out: % Enzyme Activity (relative to DMSO controls) / TP-0005801 (0.3µM) / Data 1
Procedure, shortened: as §1

DDR1 = DDR1 (Homo sapiens, UniProt Q08345); details: duplicate measurements, Km ATP
Procedure, shortened: as §1

DYRK2 = DYRK2 (Homo sapiens, UniProt Q92630); details: duplicate measurements, Km ATP
Procedure, shortened: as §1

ERBB2/HER2 = ERBB2/HER2 (Homo sapiens, UniProt P04626); details: duplicate measurements, Km ATP
Procedure, shortened: as §1

HIPK2 = HIPK2 (Homo sapiens, UniProt Q9H2X6); details: duplicate measurements, Km ATP
HIPK2, sequence (Q9H2X6 whole entry): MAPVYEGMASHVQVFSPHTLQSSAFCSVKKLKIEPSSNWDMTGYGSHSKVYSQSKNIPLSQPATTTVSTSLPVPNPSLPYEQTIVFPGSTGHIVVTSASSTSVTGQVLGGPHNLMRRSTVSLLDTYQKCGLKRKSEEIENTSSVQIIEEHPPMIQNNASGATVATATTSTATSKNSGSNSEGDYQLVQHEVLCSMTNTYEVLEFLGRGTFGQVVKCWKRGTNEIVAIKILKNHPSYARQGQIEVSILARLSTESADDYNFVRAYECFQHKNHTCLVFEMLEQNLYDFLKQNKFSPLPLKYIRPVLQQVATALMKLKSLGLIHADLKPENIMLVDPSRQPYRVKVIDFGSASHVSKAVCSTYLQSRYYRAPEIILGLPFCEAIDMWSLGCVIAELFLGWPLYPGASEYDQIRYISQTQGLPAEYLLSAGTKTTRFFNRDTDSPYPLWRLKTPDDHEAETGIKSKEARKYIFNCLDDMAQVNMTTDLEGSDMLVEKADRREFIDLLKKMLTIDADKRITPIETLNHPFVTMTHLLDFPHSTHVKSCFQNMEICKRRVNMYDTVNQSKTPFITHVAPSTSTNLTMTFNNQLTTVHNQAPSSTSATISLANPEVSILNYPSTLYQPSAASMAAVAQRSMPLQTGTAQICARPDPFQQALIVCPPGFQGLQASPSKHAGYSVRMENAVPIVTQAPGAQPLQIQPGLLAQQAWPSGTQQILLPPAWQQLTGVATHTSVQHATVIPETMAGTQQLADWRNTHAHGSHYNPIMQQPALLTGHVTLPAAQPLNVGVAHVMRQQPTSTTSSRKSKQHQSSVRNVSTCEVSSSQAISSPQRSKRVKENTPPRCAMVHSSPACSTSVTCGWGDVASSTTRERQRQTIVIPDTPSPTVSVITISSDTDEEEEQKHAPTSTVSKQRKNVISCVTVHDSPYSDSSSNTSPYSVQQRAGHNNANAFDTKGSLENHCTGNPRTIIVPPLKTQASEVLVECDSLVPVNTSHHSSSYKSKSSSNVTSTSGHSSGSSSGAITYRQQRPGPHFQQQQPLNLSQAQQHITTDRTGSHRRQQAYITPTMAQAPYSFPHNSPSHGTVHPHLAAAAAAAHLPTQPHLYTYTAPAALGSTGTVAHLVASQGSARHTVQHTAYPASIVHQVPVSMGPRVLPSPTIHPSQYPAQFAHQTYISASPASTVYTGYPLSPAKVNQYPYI
Procedure, shortened: as §1

MEKK3 = biological target: T1, MEKK3 (Homo sapiens, UniProt Q99759); details: duplicate measurements, Km ATP
T1 construct: gene MAP3K3
Procedure, shortened: as §1

MLK2/MAP3K10 = MLK2/MAP3K10 (Homo sapiens, UniProt Q02779); details: duplicate measurements, Km ATP
MLK2/MAP3K10, sequence (Q02779 whole entry): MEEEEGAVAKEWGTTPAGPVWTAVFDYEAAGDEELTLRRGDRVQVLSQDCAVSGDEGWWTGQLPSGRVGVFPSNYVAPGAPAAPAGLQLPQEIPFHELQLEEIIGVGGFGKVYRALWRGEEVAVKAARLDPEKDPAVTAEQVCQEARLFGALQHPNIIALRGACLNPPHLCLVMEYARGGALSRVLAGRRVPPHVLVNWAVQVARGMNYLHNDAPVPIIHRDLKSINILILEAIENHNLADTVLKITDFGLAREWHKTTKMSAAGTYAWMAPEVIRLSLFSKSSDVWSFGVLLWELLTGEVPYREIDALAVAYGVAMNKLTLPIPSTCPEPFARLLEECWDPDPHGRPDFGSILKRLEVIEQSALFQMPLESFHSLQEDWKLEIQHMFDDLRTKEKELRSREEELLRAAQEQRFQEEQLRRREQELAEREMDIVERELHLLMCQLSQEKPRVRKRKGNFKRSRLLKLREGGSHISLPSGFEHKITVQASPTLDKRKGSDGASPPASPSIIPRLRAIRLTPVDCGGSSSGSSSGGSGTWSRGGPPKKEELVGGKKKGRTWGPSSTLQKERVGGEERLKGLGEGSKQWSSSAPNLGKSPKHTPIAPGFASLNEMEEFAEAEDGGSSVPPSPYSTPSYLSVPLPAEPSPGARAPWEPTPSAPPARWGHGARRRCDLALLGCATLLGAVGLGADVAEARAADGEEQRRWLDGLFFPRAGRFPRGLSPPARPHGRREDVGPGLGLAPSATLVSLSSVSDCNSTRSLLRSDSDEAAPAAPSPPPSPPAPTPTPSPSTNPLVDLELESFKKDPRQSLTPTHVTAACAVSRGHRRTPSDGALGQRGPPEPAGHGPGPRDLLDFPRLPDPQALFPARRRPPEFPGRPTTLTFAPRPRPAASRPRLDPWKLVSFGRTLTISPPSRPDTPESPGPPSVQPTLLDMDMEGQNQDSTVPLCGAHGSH
Procedure, shortened: as §1

NEK3 = NEK3 (Homo sapiens, UniProt P51956); details: duplicate measurements, Km ATP
Procedure, shortened: as §1

P38g = biological target: T2, P38g (Homo sapiens, UniProt P53778); details: duplicate measurements, Km ATP
T2 construct: gene MAPK12
Procedure, shortened: as §1

PKAcb = biological target: T3, PKAcb (Homo sapiens, UniProt P22694); details: duplicate measurements, Km ATP
T3 construct: gene PRKACB
Procedure, shortened: as §1

PKCnu/PRKD3 = PKCnu/PRKD3 (Homo sapiens, UniProt O94806); details: duplicate measurements, Km ATP
Procedure, shortened: as §1

PKN1/PRK1 = PKN1/PRK1 (Homo sapiens, UniProt Q16512); details: duplicate measurements, Km ATP
Procedure, shortened: as §1

SLK/STK2 = SLK/STK2 (Homo sapiens, UniProt Q9H2G2); details: duplicate measurements, Km ATP
Procedure, shortened: as §1

c-MET = c-MET (Homo sapiens, UniProt P08581); details: duplicate measurements, Km ATP
Procedure, shortened: as §1

[1] = read-out: % Enzyme Activity (relative to DMSO controls) / TP-0005801 (0.3µM) / Data 1
[2] = read-out: % Enzyme Activity (relative to DMSO controls) / TP-0005801 (0.3µM) / Data 2

remaining activity at 0.3 µM (ABL1; [1]): 109%
remaining activity at 0.3 µM (ABL1; [2]): 107%
remaining activity at 0.3 µM (AKT3; [1]): 105%
remaining activity at 0.3 µM (AKT3; [2]): 98.7%
remaining activity at 0.3 µM (ALK3/BMPR1A; [1]): 105%
remaining activity at 0.3 µM (ALK3/BMPR1A; [2]): 100%
remaining activity at 0.3 µM (ALK6/BMPR1B; [1]): 97.9%
remaining activity at 0.3 µM (ALK6/BMPR1B; [2]): 97.6%
remaining activity at 0.3 µM (BMPR2; [1]): 89.7%
remaining activity at 0.3 µM (BMPR2; [2]): 89.2%
remaining activity at 0.3 µM (CAMK2a; [1]): 8.85%
remaining activity at 0.3 µM (CAMK2a; [2]): 8.25%
remaining activity at 0.3 µM (CDK1/cyclin B): 103%
remaining activity at 0.3 µM (DDR1; [1]): 74.4%
remaining activity at 0.3 µM (DDR1; [2]): 74.1%
remaining activity at 0.3 µM (DYRK2; [1]): 94.2%
remaining activity at 0.3 µM (DYRK2; [2]): 90.5%
remaining activity at 0.3 µM (ERBB2/HER2; [1]): 82.3%
remaining activity at 0.3 µM (ERBB2/HER2; [2]): 81.7%
remaining activity at 0.3 µM (HIPK2; [1]): 106%
remaining activity at 0.3 µM (HIPK2; [2]): 96.6%
remaining activity at 0.3 µM (MEKK3; [1]): 92.4%
remaining activity at 0.3 µM (MEKK3; [2]): 88.5%
remaining activity at 0.3 µM (MLK2/MAP3K10; [1]): 87%
remaining activity at 0.3 µM (MLK2/MAP3K10; [2]): 85.9%
remaining activity at 0.3 µM (NEK3; [1]): 89%
remaining activity at 0.3 µM (NEK3; [2]): 88%
remaining activity at 0.3 µM (P38g; [1]): 104%
remaining activity at 0.3 µM (P38g; [2]): 102%
remaining activity at 0.3 µM (PKAcb; [1]): 98%
remaining activity at 0.3 µM (PKAcb; [2]): 96.7%
remaining activity at 0.3 µM (PKCnu/PRKD3; [1]): 55.8%
remaining activity at 0.3 µM (PKCnu/PRKD3; [2]): 55.5%
remaining activity at 0.3 µM (PKN1/PRK1; [1]): 91.8%
remaining activity at 0.3 µM (PKN1/PRK1; [2]): 90.3%
remaining activity at 0.3 µM (SLK/STK2; [1]): 55.6%
remaining activity at 0.3 µM (SLK/STK2; [2]): 48.5%
remaining activity at 0.3 µM (c-MET; [1]): 104%
remaining activity at 0.3 µM (c-MET; [2]): 102%
SMILES: COc1cc(N2CCN(C)CC2)c(C)cc1Nc1ncc(Br)c(Nc2cccnc2N(C)C)n1 [TP-5801]
